Several values for one entry are separate records, joined by “and”; a condition that tells them apart may be missing. Equal values may be shown once. Marks after values point to notes of the source that are not given here.
Tests used:
Experiment in all cases: FFA sulfoconjugation assay (N6-MF-A formation with adenosine as scavenger)
Type in all cases: biochemical
[1] = molecular target: T1, hSULT1E1 (Homo sapiens, UniProt P49888)
T1 construct: made in house; host or cells: Salmonella typhimurium TA1538 (cytosolic fraction, not purified)
T1 sequence (P49888 1-294): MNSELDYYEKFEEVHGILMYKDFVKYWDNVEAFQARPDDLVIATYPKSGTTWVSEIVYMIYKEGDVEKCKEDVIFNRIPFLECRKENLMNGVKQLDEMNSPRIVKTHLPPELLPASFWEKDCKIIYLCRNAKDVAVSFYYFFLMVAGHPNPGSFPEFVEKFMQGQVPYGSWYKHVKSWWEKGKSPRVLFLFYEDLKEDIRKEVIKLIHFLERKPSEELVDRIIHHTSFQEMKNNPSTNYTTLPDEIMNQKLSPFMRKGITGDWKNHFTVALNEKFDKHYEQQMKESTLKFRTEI
Description: (§1) Cytosolic fractions containing individual SULT forms were prepared from transgenic S. typhimurium TA1538. Table S1 in the Supplementary Material provides a summary of the thirty SULTs used in the current study together with references describing the cloning of the respective S. typhimurium TA1538 strains. The expressed SULT forms are denoted with the prefixes h, m and r for human, mouse and rat enzymes, respectively. Bacteria were grown in Luria Broth medium containing ampicillin (100 µg/ml) by stirring for 8 h at 200 revolutions/min at 37 °C. The bacterial suspensions were centrifuged at 5,000 g for 10 min. The sediments were washed twice with 25 ml of 10 mM potassium phosphate buffer (pH 7.4)/50 mM potassium chloride (KCP buffer) and centrifuged again. The pellets were taken up in 800 µl KCP buffer and sonicated thrice for 15 s with 30 s pauses in between. The soluble fraction was attained by centrifuging for 1 h at 100,000 g. The supernatants (in the following termed cytosolic preparations) were frozen at −80 °C. The protein concentrations were determined according to a bicinchoninic acid (BCA) assay protocol. The SULT concentrations in the cytosolic preparations were estimated after electrophoretic separation and immunodetection using inclusion bodies of different SULT forms as standards (Teubner et al. [2007]). The preparation of SULT inclusion bodies and the immunodetection of SULTs is described in the Supplementary Material, which also contains a representative immunoblot of different amounts of rSult1a1standard and a cytosolic preparation of S. typhimurium expressing rSult1a1 (Fig. S1).
(§2) The reaction mixtures were prepared as described for HMF. In addition, they contained 10 mM adenosine as a nucleophilic scavenger. Following incubation for 20 min at 37 °C, sulfoconjugation reactions were stopped by adding 100 µl cold methanol containing 175 fmol of [^15N5]N ^6-MF-A as the internal standard, mixed and centrifuged at 15,000 g for 10 min. The clear supernatants were subjected to UPLC-MS/MS analyses. Incubations were performed as quadruplicates. At higher concentrations, FFA reacts spontaneously with adenosine at low, but detectable, levels. To correct for the SULT-independent adduct formation, mixtures with SULT-deficient cytosols were carried along simultaneously in duplicate. Controls were subtracted from the experimental samples.
(§3) The ribonucleoside adduct N ^6-((furan-2-yl)methyl)-adenosine (N ^6-MF-A) was analyzed by isotope-dilution UPLC-MS/MS with the same system described above using a HSS T3 column (1.8 µm, 2.1 × 100 mm, Waters). Samples of 8 µl were eluted with 10 mM ammonium bicarbonate buffer, pH 8.0 (A) and methanol (B) using an 6-min gradient from 98 % solvent A to 15 % solvent A at 0.35 ml/min flow rate (Yin et al. [2013]). The electrospray interface of the mass spectrometer operated in the positive ion mode. The fragmentations of N ^6-MF-A into the aglycone cation [N ^6-((furan-2-yl)methyl)-adenine-H]^+ (m/z = 348.1 → 216.1), the cleavage of the 2-methylfuranyl cation (m/z = 348.1 → 81.0) and the release of [N ^6-methyl-adenine-H]^+ (m/z = 348.1 → 148.0) were monitored together with the corresponding fragmentations of the isotope-labeled internal standard [^15N5]N ^6-MF-A for the formation of the aglycone (m/z = 353.1 → 221.1), the 2-methylfuran cation (m/z = 353.1 → 81.0) and ^15N5-labeled N ^6-methyl-adenine (m/z = 353.1 → 153.0). The N ^6-MF-A content of the incubation mixture was calculated from the ratio of peak areas resulting from the total ion current of all three MRM signals of the analyte. For the fragmentation of N ^6-MF-A ([^15N5]N ^6-MF-A), collision energies were 20, 25 and 35 eV for the transitions m/z = 348.1 → 216.1 (m/z = 353.1 → 221.1), m/z = 348.1 → 148.0 (m/z = 353.1 → 153.0) and m/z = 348.1 → 81.0 (m/z = 353.1 → 81.0), respectively. […]

[2] = molecular target: T2, rSult2a3 (Rattus norvegicus, UniProt P22789)
T2 construct: made in house; host or cells: Salmonella typhimurium TA1538 (cytosolic fraction, enzyme not purified)
T2 sequence (P22789 2-284 limits assumed): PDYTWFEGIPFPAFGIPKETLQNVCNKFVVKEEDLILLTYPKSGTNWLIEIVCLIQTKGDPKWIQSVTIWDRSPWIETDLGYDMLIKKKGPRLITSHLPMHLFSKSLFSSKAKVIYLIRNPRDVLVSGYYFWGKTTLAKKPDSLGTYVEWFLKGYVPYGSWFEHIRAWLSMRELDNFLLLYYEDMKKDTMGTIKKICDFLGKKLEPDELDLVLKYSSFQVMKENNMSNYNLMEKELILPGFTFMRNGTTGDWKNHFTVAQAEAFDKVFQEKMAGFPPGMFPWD
Description: as §1, §2, §3

[3] = molecular target: T3, hSULT2A1 (Homo sapiens, UniProt Q06520)
T3 construct: made in house; host or cells: Salmonella typhimurium TA1538 (cytosolic fraction, not purified)
T3 sequence (Q06520 1-285): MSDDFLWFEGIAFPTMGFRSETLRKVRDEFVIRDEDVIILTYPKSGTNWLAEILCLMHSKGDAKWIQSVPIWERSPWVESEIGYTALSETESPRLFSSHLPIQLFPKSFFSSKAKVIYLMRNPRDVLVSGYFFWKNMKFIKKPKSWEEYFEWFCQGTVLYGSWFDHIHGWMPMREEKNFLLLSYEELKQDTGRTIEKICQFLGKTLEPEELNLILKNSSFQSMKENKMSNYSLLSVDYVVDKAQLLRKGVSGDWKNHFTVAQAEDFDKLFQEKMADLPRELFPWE
Description: as §1, §2, §3

[4] = molecular target: T4, mSult1a1 (Mus musculus, UniProt P52840)
T4 construct: made in house; host or cells: Salmonella typhimurium TA1538 (cytosolic fraction, enzyme not purified)
Description: as §1, §2, §3

T4 sequence (P52840 whole entry): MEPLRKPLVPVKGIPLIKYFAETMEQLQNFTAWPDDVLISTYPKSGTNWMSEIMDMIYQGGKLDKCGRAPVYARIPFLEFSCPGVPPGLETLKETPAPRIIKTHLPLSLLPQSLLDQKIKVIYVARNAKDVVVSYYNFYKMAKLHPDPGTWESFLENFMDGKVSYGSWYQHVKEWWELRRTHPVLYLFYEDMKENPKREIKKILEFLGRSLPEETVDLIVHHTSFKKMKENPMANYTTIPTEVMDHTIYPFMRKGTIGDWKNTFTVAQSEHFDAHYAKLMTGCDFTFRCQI

OCc1ccco1 [FFA, furfuryl alcohol]
Rate of N6-MF-A formation ([1]; 0.1 mM FFA): <18 fmol N ^6-MF-A/mg/min | Rate of N6-MF-A formation ([1]; 1 mM FFA): <20 fmol N ^6-MF-A/mg/min | Rate of N6-MF-A formation ([1]; 10 mM FFA): 47.0 ± 0.9 fmol N ^6-MF-A/mg/min | Rate of N6-MF-A formation ([2]; 0.1 mM FFA): 48.3 ± 1.3 fmol N ^6-MF-A/mg/min | Rate of N6-MF-A formation ([2]; 1 mM FFA): 461 ± 8 fmol N ^6-MF-A/mg/min | Rate of N6-MF-A formation ([2]; 10 mM FFA): 3,420 ± 30 fmol N ^6-MF-A/mg/min | Rate of N6-MF-A formation ([3]; 0.1 mM FFA): <18 fmol N ^6-MF-A/mg/min | Rate of N6-MF-A formation ([3]; 1 mM FFA): 37.0 ± 0.6 fmol N ^6-MF-A/mg/min | Rate of N6-MF-A formation (corr.) ([3]; 1 mM FFA, corrected by SULT concentration reported in Meinl et al. [2006]): 2,110 ± 40^b fmol N ^6-MF-A/mg/min | Rate of N6-MF-A formation ([3]; 10 mM FFA): 386 ± 6 fmol N ^6-MF-A/mg/min | Rate of N6-MF-A formation ([4]; 0.1 mM FFA): 361 ± 4 fmol N ^6-MF-A/mg/min | Rate of N6-MF-A formation ([4]; 1 mM FFA): 2,590 ± 20 fmol N ^6-MF-A/mg/min | Rate of N6-MF-A formation (corr.) ([4]; 1 mM FFA, corrected by actual SULT concentration in the cytosolic preparation): 61,700 fmol N ^6-MF-A/mg/min and 61,700 ± 400 fmol N ^6-MF-A/mg/min | ratio of N6-MF-A formation rate, mSult1a1 vs mSult1d1 ([4]; 1 mM FFA, corrected rates): about 14 fold | Rate of N6-MF-A formation ([4]; 10 mM FFA): 5,140 ± 60 fmol N ^6-MF-A/mg/min

— publication PMC4710668, “Bioactivation of food genotoxicants 5-hydroxymethylfurfural and furfuryl alcohol by sulfotransferases from human, mouse and rat: a comparative study” (Archives of Toxicology, 2014)
